Results taken from patent US20140349948A1, “Treatment of Chronic Constipation” (Forest Laboratories Holdings Limited, priority 2009, published 2014).
Marks after values point to notes of the source that are not given here. Residues, ends and D or L forms follow the SMILES beside them.

Tests used:
[1] = tested on: patients with chronic constipation; assay: Chronic Constipation Trial 2, 12-week treatment period; assay type: in vivo, human; conditions: for Straining, Week 1 Mean Change from Baseline / Abdominal discomfort, Week 1 Mean Change from Baseline / Bloating, Week 1 Mean Change from Baseline / Constipation severity, Week 1 Mean Change from Baseline: 5-point scale: 1 = none; for Straining, Week 1 Mean Change from Baseline: 5 = an extreme amount; for Abdominal discomfort, Week 1 Mean Change from Baseline / Bloating, Week 1 Mean Change from Baseline / Constipation severity, Week 1 Mean Change from Baseline: 5 = very severe; for Stool Consistency, Week 1 Mean Change from Baseline: 7-point scale (BSFS)
Procedure: Linaclotide Capsules from Example 4 were administered in multicenter, randomized, double-blind, placebo-controlled trials.
Trial 1 was conducted in 630 patients meeting modified Rome II criteria for chronic constipation. The trial included a two-week pretreatment baseline period and a 12-week treatment period. A diagram of the study design for Trial 2 is given in FIG. 1, which is substantially similar to Trial 1 except for the addition of a Randomized Withdrawal period in Trial 2 as described below.
The Treatment Period began with randomization and lasted for 12 weeks. Patients were randomized to treatment with 133 μg linaclotide, 266 μg linaclotide, or placebo (1:1:1), taken once daily in the morning. Patients continued to provide their daily assessments such as their daily bowel habit assessments and daily patient symptom severity assessments.
(§1) Trial 2 was conducted in 642 patients and was identical to Trial 1 except that Trial 2 also included a four-week Randomized Withdrawal Period, defined below. During the two-week pretreatment (baseline) period, 68 percent of patients in Trial 2 had no CSBMs.

[2] = tested on: patients with chronic constipation; assay: Trial 2 four-week Randomized Withdrawal Period; assay type: in vivo, human; set-up: Straining, Change From Baseline, Mean / Abdominal Discomfort, Change From Baseline, Mean / Bloating, Change From Baseline, Mean / Constipation Severity, Change From Baseline, Mean / Global Relief of Constipation Symptoms, Change From Baseline, Mean: scale not given here; conditions: RW Period
Procedure: as §1
The Randomized Withdrawal (RW) Period is defined as the 4 weeks immediately following the Treatment Period. The beginning of the RW Period coincides with the end of the Treatment Period. Patients who were randomized to linaclotide in the Treatment Period and complete the 12 weeks of the Treatment Period were randomized to treatment with linaclotide or placebo in the RW Period. Patients who were randomized to placebo in the Treatment Period and complete the 12 weeks of the Treatment Period received 133 μg or 266 μg linaclotide in the RW Period.

[3] = Trial 2, 133 μg (p≦0.0001) and 266 μg (p≦0.0001)

Compound: C[C@@H]1NC(=O)[C@@H]2CCCN2C(=O)[C@H](CC(N)=O)NC(=O)[C@@H]2CSSC[C@H](N)C(=O)N[C@H]3CSSC[C@H](NC1=O)C(=O)N[C@@H]([C@@H](C)O)C(=O)NCC(=O)N[C@H](C(=O)N[C@@H](Cc1ccc(O)cc1)C(=O)O)CSSC[C@H](NC(=O)[C@H](Cc1ccc(O)cc1)NC(=O)[C@H](CCC(=O)O)NC3=O)C(=O)N2 [Linaclotide, Cys1 Cys2 Glu3 Tyr4 Cys5 Cys6 Asn7 Pro8 Ala9 Cys10 Thr11 Gly12 Cys13 Tyr14] (HELM PEPTIDE1{C.C.E.Y.C.C.N.P.A.C.T.G.C.Y}$PEPTIDE1,PEPTIDE1,1:R3-6:R3|PEPTIDE1,PEPTIDE1,2:R3-10:R3|PEPTIDE1,PEPTIDE1,5:R3-13:R3$$$V2.0)
- CSBM rate, Week 1 Mean Change from Baseline ([1]; 133 μg, Trial 2 (n = 217)): 1.89***
- SBM rate, Week 1 Mean Change from Baseline ([1]; 133 μg, Trial 2 (n = 217)): 3.59***
- Straining, Week 1 Mean Change from Baseline ([1]; 133 μg, Trial 2 (n = 217)): −0.99***
- Abdominal discomfort, Week 1 Mean Change from Baseline ([1]; 133 μg, Trial 2 (n = 217)): −0.23
- Bloating, Week 1 Mean Change from Baseline ([1]; 133 μg, Trial 2 (n = 217)): −0.32**
- Constipation severity, Week 1 Mean Change from Baseline ([1]; 133 μg, Trial 2 (n = 217)): −0.80***
- Stool Consistency, Week 1 Mean Change from Baseline ([1]; 133 μg, Trial 2 (n = 217)): 1.75***
- CSBM rate, Week 1 Mean Change from Baseline ([1]; 266 μg, Trial 2 (n = 216)): 2.02***
- SBM rate, Week 1 Mean Change from Baseline ([1]; 266 μg, Trial 2 (n = 216)): 3.61***
- Straining, Week 1 Mean Change from Baseline ([1]; 266 μg, Trial 2 (n = 216)): −1.06***
- Abdominal discomfort, Week 1 Mean Change from Baseline ([1]; 266 μg, Trial 2 (n = 216)): −0.21
- Bloating, Week 1 Mean Change from Baseline ([1]; 266 μg, Trial 2 (n = 216)): −0.27*
- Constipation severity, Week 1 Mean Change from Baseline ([1]; 266 μg, Trial 2 (n = 216)): −0.76***
- Stool Consistency, Week 1 Mean Change from Baseline ([1]; 266 μg, Trial 2 (n = 216)): 1.81***
- 12-week CSBM overall responder rate ([1]; Trial 2, 133 μg): 21.2%
- increase in average weekly CSBMs from baseline ([1]; Trial 2, 133 μg): 1.9
- increase in average weekly SBMs from baseline ([1]; Trial 2, 133 μg): 3.0
- numerical increase of 12-week CSBM overall responder rate as compared to placebo ([1]; Trial 2, 133 μg): 6.3 fold
- patients reporting at least one CSBM within 24 hours of treatment ([1]; Trial 2, 133 μg): 33.2%
- patients reporting at least one SBM within 24 hours of treatment ([1]; Trial 2, 133 μg): 70.0%
- patients who experienced weekly CSBMs in at least nine out of 12 weeks ([1]; Trial 2, 133 μg): 21.7%
- patients with increase of ≧1 from baseline in weekly CSBMs in at least nine out of 12 weeks ([1]; Trial 2, 133 μg): 39.2%
- patients with increase of ≧1 from baseline in weekly CSBMs in at least six out of 12 weeks ([1]; Trial 2, 133 μg): 56.7%
- 12-week CSBM overall responder rate ([1]; Trial 2, 266 μg): 19.4%
- increase in average weekly CSBMs from baseline ([1]; Trial 2, 266 μg): 2.0
- increase in average weekly SBMs from baseline ([1]; Trial 2, 266 μg): 3.0
- numerical increase of 12-week CSBM overall responder rate as compared to placebo ([1]; Trial 2, 266 μg): 5.8 fold
- patients reporting at least one CSBM within 24 hours of treatment ([1]; Trial 2, 266 μg): 26.9%
- patients reporting at least one SBM within 24 hours of treatment ([1]; Trial 2, 266 μg): 54.6%
- patients who experienced weekly CSBMs in at least nine out of 12 weeks ([1]; Trial 2, 266 μg): 19.4%
- patients with increase of ≧1 from baseline in weekly CSBMs in at least nine out of 12 weeks ([1]; Trial 2, 266 μg): 37.0%
- patients with increase of ≧1 from baseline in weekly CSBMs in at least six out of 12 weeks ([1]; Trial 2, 266 μg): 50.5%
- PAC-QOL overall assessments, 12 week overall mean change versus placebo [1, 3]: statistically significant improvements
- overall constipation severity score, 12 week overall mean change versus placebo [1, 3]: statistically significant improvements
- severity of straining score, 12 week overall mean change versus placebo [1, 3]: statistically significant improvements
- stool consistency score, 12 week overall mean change versus placebo [1, 3]: statistically significant improvements
- bloating score, 12 week overall mean change versus placebo ([1]; Trial 2, 133 μg (p≦0.0001) and 266 μg (p≦0.01)): statistically significant improvements
- abdominal discomfort score, 12 week overall mean change versus placebo ([1]; Trial 2, 133 μg (p≦0.001) and 266 μg (p≦0.01)): statistically significant improvements
- abdominal discomfort in week 2 ([1]; study 2, week 2 (p<0.01)): Statistically significant improvement
- Abdominal Discomfort, Change From Baseline, Mean ([2]; 133 μg/133 μg (n = 90)): −0.5
- Bloating, Change From Baseline, Mean ([2]; 133 μg/133 μg (n = 90)): −0.4
- Constipation Severity, Change From Baseline, Mean ([2]; 133 μg/133 μg (n = 90)): −0.9
- Global Relief of Constipation Symptoms, Change From Baseline, Mean ([2]; 133 μg/133 μg (n = 90)): −1.3
- Stool Consistency (BSFS), Change From Baseline, Mean ([2]; 133 μg/133 μg (n = 90)): 1.9
- Straining, Change From Baseline, Mean ([2]; 133 μg/133 μg (n = 90)): −1.1
- Weekly CSBM Rate, Change From Baseline, Mean ([2]; 133 μg/133 μg (n = 90)): 2.1
- Weekly SBM Rate, Change From Baseline, Mean ([2]; 133 μg/133 μg (n = 90)): 3.0
- Abdominal Discomfort, Change From Baseline, Mean ([2]; 133 μg/Placebo (n = 95)): −0.4
- Bloating, Change From Baseline, Mean ([2]; 133 μg/Placebo (n = 95)): −0.4
- Constipation Severity, Change From Baseline, Mean ([2]; 133 μg/Placebo (n = 95)): −0.5
- Global Relief of Constipation Symptoms, Change From Baseline, Mean ([2]; 133 μg/Placebo (n = 95)): −0.7
